In ChEMBL document CHEMBL1139957, “Synthesis of furanosyl alpha-C-glycosides derived from 4-chloro-4-deoxy-alpha-D-galactose and their cytotoxic activities” (2007) one finds Inhibition data, which are given here for eleven molecules.

In general, Inhibition refers to the drop in the measured response relative to a control, in per cent. Lower therefore signals little suppression.

SMILES strings stand for the structures.

Holding throughout (type): functional
Test [1] has as its system A549. The test can be described thus: Cytotoxicity against human A549 cells at 50 umol/mL after 48 hrs by MTT assay. (In general: Tetrazolium dyes change colour on reduction, which living cells bring about.)
Test [2] concerns A549. The test can be described thus: Cytotoxicity against human A549 cells at 100 umol/mL after 48 hrs by MTT assay.
In test [3] the test system is A549. The test can be described thus: Cytotoxicity against human A549 cells at 200 umol/mL after 48 hrs by MTT assay.

For `CCOC(=O)c1cc([C@H]2OC[C@@H](N)[C@@H]2Cl)oc1C`, the Inhibition came to 10.09% with A549 [1], 16.29% in the test with A549 [2] and 24.82% in the test with A549 [3].
For `CCOC(=O)c1cc([C@H]2OC[C@@H](OS(C)(=O)=O)[C@@H]2Cl)oc1C`, in that order: 15.3%, 18.55% and 27.87%.
On the same counts, the results for `CC(=O)c1cc([C@H]2OC[C@@H](N=[N+]=[N-])[C@@H]2Cl)oc1C` are 32.73%, 48.6% and 56.7%.
On the same counts, the results for `CCOC(=O)c1cc([C@H]2OC[C@@H](N=[N+]=[N-])[C@@H]2Cl)oc1C` are 18.28%, 19.79% and 36.89%.
With `CC(=O)c1cc([C@H]2OC[C@@H](N)[C@@H]2Cl)oc1C`, the Inhibition in the test on A549 [1] is on record as 13.04%; in the test on A549 [2], 24.86%; in the test on A549 [3], 34.57%.
For `CC(=O)c1cc(C2OC[C@@H](O)[C@@H]2O)oc1C` (stereo partly drawn), in that order: 23.14%, 27.4% and 33.09%.
For `COC(=O)c1cc([C@H]2OCC(=O)[C@@H]2Cl)oc1C`, the figures for the Inhibition in the test with A549 [1], with A549 [2] and in the test with A549 [3] were 21.49%, 28.55% and 37.67%, respectively.
As to `CC(=O)c1cc([C@H]2OC[C@@H](OS(C)(=O)=O)[C@@H]2Cl)oc1C`, the results for the Inhibition with A549 [1], with A549 [2] and in the test on A549 [3] were 26.42%, 35.65% and 46.8%, respectively.
On the same counts, the results for `CC(=O)c1cc([C@H]2OC[C@@H](O)[C@@H]2Cl)oc1C` are 24.36%, 31.92% and 39.36%.
On the same counts, the results for `CCOC(=O)c1cc([C@H]2OC[C@@H](O)[C@@H]2Cl)oc1C` are 15.15%, 18.51% and 25.72%.
On the same counts, the results for `CCOC(=O)c1cc([C@H]2OCC(=O)[C@@H]2Cl)oc1C` are 28.81%, 31.36% and 45.68%.
